Laboratory results: US8247170B2, “Detection of penicillin tolerance in Group B Streptococcus: single nucleotide polymorphisms in penicillin binding protein 4” (priority 2008, dated 2012)

System: GBS laboratory strains and clinical isolates
Assay: Microbroth (96-well) penicillin tolerance assay
Type: cell-based, Group B Streptococcus
Conditions: for Penicillin Phenotypes: 48 hr penicillin, 24 hr drug free culture; for replication or viability after re-plate and additional 24-hour culture (FIG. 1): penicillin G 1× to 256×MIC90 48 hours
Method: An in vitro method involving microbroth (96-well) culture was used to develop a penicillin tolerance assay. In this assay, the inventors tested three laboratory bacterial strains (i.e., GBS strains A909, NEM316, and O90R). These cells were commercially obtained from ATCC source. Bacterial cells were cultured overnight for 18 hours at 37° C. in Todd-Hewitt Broth (THB). Subcultures in THB were subsequently grown to exponential phase (OD600˜0.3) at 37° C. Cell cultures were then exposed to different concentrations of penicillin G (Sigma, St. Louis, Mo.). […] Cell cultures were dispersed. A dilution (i.e., 1 to 20) of cells was re-plated into new wells containing fresh THB with 500 U Penase (to destroy residual penicillin). Cell cultures were allowed to grow for an additional 24 hours at 37° C. Assays were repeated four (4) times and standard bar represents standard deviations.
Using this established 96-well assay (i.e., microbroth assay), 115 clinical isolates of GBS were further tested. These were cervico-vaginal rectal clinical isolates (obtained from pregnant humans), and characterized their penicillin tolerance. The phenotype definitions (above) were used to identify the penicillin tolerant isolates.
(I) Bacterial Strains and Culture Conditions. GBS strains A909 (serotype IA), 515 (serotype IA), NEM316 (serotype III), COHI (serotype III), 2603V/R (serotype V) and O90R (non-typable) were used in this study. E. coli Top10 cells were used for the recombination experiments. GBS was cultured in Todd Hewitt broth (THB) or Tryptic Soy 5% sheep blood (TS) media and E. coli in Luria-broth (LB) medium or agar. Antibiotics were used at the following concentrations: for GBS—penicillin G (MIC90 0.06 μg ml^−1), ampicillin (MIC90 0.12 μg ml^−1), vancomycin (MIC90 2 μg ml^−1), cefazolin (MIC90 1 μg ml^−1) and chloramphenicol (5 μg ml^−1); for E. coli—ampicillin (50 μg ml^−1) and chloramphenicol (5 μg ml^−1). Both GBS and E. coli cultures were grown at 37° C. (II) Tolerance Using the MBC:MIC Ratio Method. Three GBS laboratory strains (i.e., A909, NEM316, and O90R) were cultured overnight for 18 h at 37° C. in THB. Subcultures in THB were subsequently grown to exponential phase (OD600˜0.3; i.e. 5×10^5 cfu/ml) at 37° C. Cell cultures were then exposed to different concentrations of antibiotics (Penicillin G, Ampicillin, Cefozolin or Vancomycin). […] Cell cultures were dispersed every 18 h before OD600 was measured to determine the lowest concentration of antibiotic with 90% growth inhibition (MIC90). Antibiotic treated cells (8 μl) from each well were re-suspended into PBS (100 μl) and plated (54 μl) on TS agar plates and allowed to grow for an additional 24 h at 37° C. Cell count was performed to determine the lowest concentration of antibiotic with 90% killing of original inoculums (MBC90). (III) Penicillin Killing and Regrowth Tolerance Assay by Microbroth Dilution. Three GBS laboratory strains (i.e., A909, NEM316, and O90R) were cultured overnight for 18 h at 37° C. in THB. Subcultures in THB were subsequently grown to exponential phase (OD600˜0.3) at 37° C. Cell cultures were then exposed to different concentrations of Penicillin G (Sigma, St. Louis, Mo.). […] Cell cultures were dispersed. A 1:20 dilution of cells was re-plated into new wells containing fresh THB with 500 U Penase (to degrade residual penicillin). Cell cultures were allowed to re-grow for an additional 24 h at 37° C. before the OD600 was measured. (IV) Measuring Cell Viability by Determining ATP Concentration. GBS strains were cultured for 18 h at 37° C. in THB. These cells were inoculated into fresh THB and subsequently allowed to grow to exponential phase (OD600 0.25-0.3) at 37° C. One ml of each culture was centrifuged at 5,000×g for 4 min. The cell pellet was re-suspended in ATP-free water. Cellular ATP was extracted using trichloroacetic acid (TCA) (5%) for 2 min and subsequently neutralized with Tris-EDTA-0.1M NaOAc, pH 7.75 to 10×TCA volume. […]

CC1(C)S[C@@H]2[C@H](NC(=O)Cc3ccccc3)C(=O)N2[C@H]1C(=O)O [Penicillin G]
% GBS Clinical Strains, Intermediate (115 clinical isolates): 8% | % GBS Clinical Strains, Paradoxical Effect-Penicillin Tolerance (PE-PT) (115 clinical isolates): 27% | % GBS Clinical Strains, Penicillin Tolerance (PT) (115 clinical isolates): 16% | % GBS Clinical Strains, Susceptible (S) (115 clinical isolates): 49% | Penicillin Phenotypes (GBS laboratory strain A909): Susceptible (S) | Penicillin Phenotypes (GBS laboratory strain NEM316): Paradoxical Effect-Penicillin Tolerance (PE-PT) | Penicillin Phenotypes (GBS laboratory strain O90R): Penicillin Tolerance (PT) | replication or viability after re-plate and additional 24-hour culture (FIG. 1) (GBS strain A909): did not replicate | replication or viability after re-plate and additional 24-hour culture (FIG. 1) (GBS strain NEM316, viability lost at 16× to 64×MIC90): paradoxical effect | replication or viability after re-plate and additional 24-hour culture (FIG. 1) (GBS strain O90R): did not inhibit the replication or viability
